Measured values taken from patent US20100022457A1 (Bristol-Myers Squibb Company, priority 2006, published 2010).
Where a SMILES comes first, the peptide text is derived from it. [ ]: non-standard residue; d: D form. Ala(6-(2-MePh)pyridin-3-yl) = Cc1ccccc1-c1ccc(C[C@H](N)C(=O)O)cn1; Bip(2'-Et-4'-OMe) = CCc1cc(OC)ccc1-c1ccc(C[C@H](N)C(=O)O)cc1; αMePhe(2-F) = C[C@](N)(Cc1ccccc1F)C(=O)O; Aib = CC(C)(N)C(=O)O

What was measured:
[1] = Exposure during ipGTT in ob/ob mice; format: in vivo, mouse; conditions: sc
[2] = test system: C57BL/6J-ob/ob mice; test: Intraperitoneal glucose tolerance test (ipGTT) in ob/ob mice after subcutaneous injection; format: in vivo, mouse
Method: Peptides were dissolved in an appropriate vehicle at a concentration in nmol/ml equivalent to the dose that was to be administered in nmol/kg so that each mouse would receive the same volume/weight of dosing solution. Male C57BL/6J-ob/ob mice (10 weeks old) were randomized into groups of 6 mice per group based on fed plasma glucose and body weight. After an overnight fast, mice were weighed and placed in the experimental lab. After 30 min in the environment, the mice were bled via tail tip at −30 min and immediately injected subcutaneously (sc) with vehicle or the peptide dissolved in vehicle (0.1 ml solution/100 g body weight). At time 0 the mice were bled and then injected intraperitoneally with 50% glucose (2 g/kg) to initiate the intraperitoneal glucose tolerance test (ipGTT). The mice were bled 30, 60, 120 and 180 min after the glucose injection. Blood samples were drawn into potassium EDTA, placed on ice during the study and subsequently centrifuged for 10 min at 3000 rpm at 4° C. Plasma samples were diluted 1-fold for glucose analysis in the Cobas System. Another 5 μl plasma sample was diluted 5-fold with 20 μl of Sample Diluent (Insulin ELISA assay kit, Crystal Chem Inc.) and stored at −20° C. for subsequent analysis using the Ultra Sensitive Mouse Insulin ELISA kit (Crystal Chem Inc.).

Exposure/dose during ipGTT in ob/ob mice [1]: 18 nM*h/nmol/kg
Compound: CCc1cc(OC)ccc1-c1ccc(C[C@H](NC(=O)[C@H](CC(=O)O)NC(=O)[C@H](CO)NC(=O)[C@@H](NC(=O)[C@](C)(Cc2ccccc2F)NC(=O)[C@@H](NC(=O)CNC(=O)[C@H](CCC(=O)O)NC(=O)C(C)(C)NC(=O)[C@@H](N)Cc2c[nH]cn2)[C@@H](C)O)[C@@H](C)O)C(=O)N[C@@H](Cc2ccc(-c3ccccc3C)nc2)C(N)=O)cc1 [SEQ ID NO: 9] (H-H[Aib]EGT[αMePhe(2-F)]TSD[Bip(2'-Et-4'-OMe)][Ala(6-(2-MePh)pyridin-3-yl)]-NH2)
Potency in ob/ob mice: % AUC Reduction in Plasma Glucose in an IP Glucose Tolerance Test after SC Injection of Compound ([2]; 10 nmol/kg sc, relative to vehicle-treated group): −68% (p < 0.0001)
maximum increase in postprandial insulin AUC ([2]; 30 nmol/kg sc, ipGTT ob/ob mice): 187.7%
plasma glucose AUC decrease ([2]; 100 nmol/kg sc, ipGTT ob/ob mice): 85.8%
effect on postprandial plasma glucose ([2]; sc in ob/ob mice, between 0 and 180 or 210 minutes): statistically significant decrease
Potency in ob/ob mice ED50 ([2]; sc injection, plasma glucose AUC in ipGTT): 5 nmol/kg
